Where “and” joins values, the source holds several entries; their conditions need not be identical. Equal values may be shown once.
Legend:
[1] = xn = mol fraction of the nth substance listed; details: 101 kPa, Liquid
[2] = for mass density / viscosity: 101 kPa, Liquid

CCCCn1cc[n+](C)c1.N#C[S-] [1-butyl-3-methylimidazolium thiocyanate] + CO
[1]
Details	mass density, 298.15 K [kg/m3]	mass density, 308.15 K [kg/m3]	mass density, 318.15 K [kg/m3]	mass density, 328.15 K [kg/m3]	viscosity, 298.15 K [mPa·s]	viscosity, 308.15 K [mPa·s]	viscosity, 318.15 K [mPa·s]	viscosity, 328.15 K [mPa·s]
x1 = 0.0154	810	800.87	791.7	782.41	0.665	0.593	0.536	0.49
x1 = 0.0531	854.66	846.16	837.63	829.05	0.871	0.765	0.681	0.613
x1 = 0.0964	892.65	884.64	876.63	868.59	1.18	1.02	0.892	0.792
x1 = 0.1443	924.63	917.04	909.43	901.81	1.62	1.39	1.2	1.06
x1 = 0.2076	954.94	947.69	940.47	933.23	2.34	1.96	1.67	1.45
x1 = 0.3602	1001.45	994.74	988.06	981.43	5.15	4.13	3.33	2.82
x1 = 0.5083	1028.1	1021.68	1015.3	1008.99	9.75	7.55	6.03	4.85
x1 = 0.6227	1041.88	1035.64	1029.43	1023.26	14.5	10.8	8.4	6.68
x1 = 0.7114	1050.29	1044.13	1038.01	1031.94	19.4	14.1	10.7	8.4
x1 = 0.8006	1057.46	1051.39	1045.36	1039.38	25.4	18	13.4	10.32
x1 = 0.9046	1064.23	1058.22	1052.27	1046.37	34.1	23.3	16.9	12.78
x1 = 1	1069.79	1063.89	1058.02	1052.19	51.7	34.9	24.2	16.7

CCO [ethanol]
[2]
Details	mass density [kg/m3]	viscosity [mPa·s]
298.15 K	785.17	1.09
308.15 K	776.49	0.912
318.15 K	767.67	0.774
328.15 K	758.65	0.664
338.15 K	749.35	0.589
348.15 K	739.75	0.512

CCCO [propan-1-ol] + CCCCn1cc[n+](C)c1.N#C[S-]
[1], x2 = 0
Details	mass density [kg/m3]	viscosity [mPa·s]
298.15 K	799.52	1.94
308.15 K	791.41	1.54
318.15 K	783.15	1.24
328.15 K	774.66	1.02
338.15 K	765.91	0.842
348.15 K	756.84	0.71

CO [methanol] + CCCCn1cc[n+](C)c1.N#C[S-]
[1], x2 = 0
Details	mass density [kg/m3]	viscosity [mPa·s]
298.15 K	786.64	0.577
308.15 K	777.15	0.525
318.15 K	767.59	0.481
328.15 K	757.83	0.443

CCO [ethanol] + CCCCn1cc[n+](C)c1.N#C[S-]
[1], x2 = 0
Details	mass density [kg/m3]	viscosity [mPa·s]
298.15 K	785.17	1.09
308.15 K	776.49	0.912
318.15 K	767.67	0.774
328.15 K	758.65	0.664
338.15 K	749.35	0.589
348.15 K	739.75	0.512

CCCCn1cc[n+](C)c1.N#C[S-] [1-butyl-3-methylimidazolium thiocyanate]
[2]
Details	mass density [kg/m3]	viscosity
298.15 K	1069.79	51.7 mPa·s
308.15 K	1063.89	34.9 mPa·s
318.15 K	1058.02	24.2 mPa·s
328.15 K	1052.19	16.7 mPa·s
338.15 K	1046.43	12.73 mPa·s and 12.7 mPa·s
348.15 K	1040.7	9.98 mPa·s

Details	Glass transition temperature [°C]
[2], Glass, DTA	-91.5

— the NIST ThermoML archive (doi:10.1021/je8008254)
